# According to patent US20230228764A1, “METHOD FOR THE DIAGNOSIS AND TREATMENT OF ESSENTIAL PRIMARY HYPERTENSION” (Universiteit Maastricht, priority 2020, published 2023):
# “Also recorded” adds a separate entry of the source.
# What was measured:
# [1] = system: thoracic aorta of the KI and WT mice; assay: Agonist-induced contractile responses, wire myograph; settings: 10 μM indomethacin
# From the text: We next tested whether, alternatively, chronic changes in the underlying arterial smooth muscle layer could have contributed to the observed blood pressure and vasomotor phenotypes in aged NOX5 KI mice. Contractile responses to K^+ and the sensitivity and maximal responsiveness to phenylephrine and endothelin-1 did, however, not differ between KI and WT mice in all arterial segments (FIGS. 10 A-I).
# (§1) After mice were sacrificed, thoracic aortae, femoral and saphenous arteries were dissected free from perivascular adipose tissue and mounted in a wire myograph (DMT, Aarhus, DK). The organ chamber was filled with Krebs-Ringer bicarbonate-buffered salt solution (KRB) that was continuously aerated with 95% O2/5% CO2 and maintained at 37° C. […] Arterial contractile and relaxing responses were recorded at lumen diameters corresponding to a distending pressure of 100 mmHg in thoracic aorta and femoral artery and at 90% of this diameter in the resistance-sized saphenous artery. […] Consequently, wall stiffness can be determined equally by recording 1) changes in tension in response to imposed changes in radius (wire myography) or 2) changes in radius in response to changes in transmural pressure (pressure myography). […] The wall tension of the vessel segment was continuously recorded with LabChart Pro (AD Instruments, Oxford, UK).
# [2] = system: femoral arteries, saphenous arteries and thoracic aortae of aged WT and KI mice; assay: Endothelium-independent relaxations induced by NO donor, wire myograph; settings: PAPA/NO 0.01-10 μM, thoracic aortae with/without indomethacin
# Experimental: (§2) To test which component of NO-cGMP signalling was most likely affected, we tested an uncoupling effect on endothelial NO synthase or an oxidative damage of the NO receptor, soluble guanylate cyclase yielding oxidized or heme-free apo-sGC [51, 52]. To test for sGC/apo-sGC, relaxing responses to the NO donor compound and sGC stimulator, PAPA/NO (0.01-10 μM), and to the aposGC activator, BAY 60-2770 (0.01-10 μM), were analyzed.
# as §1
# [3] = system: femoral arteries of aged NOX5 KI mice; assay: Acetylcholine (Ach)-induced relaxation of isolated femoral arteries, wire myograph; settings: for Reversal of impaired Ach-induced relaxation by antioxidant: femoral arteries of aged KI mice contracted with 10 μM phenylephrine, Ach 10 μM
# From the text: (§3) To test the effect of endothelial NOX5 on endothelium-dependent, NO-cGMP mediated relaxation, arterial segments were pre-contracted by either depolarization (K^+), α1-adrenergic activation (phenylephrine), or endothelin-1; vaso-relaxation was then induced by acetylcholine (Ach) the classical endothelium-derived relaxing factor stimulant. […] When comparing ours to previous studies, the Ach-induced relaxation of saphenous arteries of both mice groups seemed attenuated. There are two possible explanations for this discrepancy. First, we have used very old mice and other studies used young mice.
# After mice were sacrificed, thoracic aortae, femoral and saphenous arteries were dissected free from perivascular adipose tissue and mounted in a wire myograph (DMT, Aarhus, DK). The organ chamber was filled with Krebs-Ringer bicarbonate-buffered salt solution (KRB) that was continuously aerated with 95% O2/5% CO2 and maintained at 37° C. Passive stretch procedure was performed to mimic the physiologically relevant internal lumen diameter as previously described. Arterial contractile and relaxing responses were recorded at lumen diameters corresponding to a distending pressure of 100 mmHg in thoracic aorta and femoral artery and at 90% of this diameter in the resistance-sized saphenous artery. […] The diameter tension relationships were constructed according to the law of Laplace for a cylindrical tube: P=T/R (with P for transmural pressure, T for wall tension and R for the lumen radius of the tube). Consequently, wall stiffness can be determined equally by recording 1) changes in tension in response to imposed changes in radius (wire myography) or 2) changes in radius in response to changes in transmural pressure (pressure myography). Here we used the former approach because it has a higher throughput than the latter. Stress-strain relationships and even better “incremental elastic (Young's) modulus” (which require additional recording of wall thickness) only come into play to discriminate between structural and material property contributions to changes in arterial stiffness. Part of the isolated thoracic aorta was studied in the absence and part in the continuous presence of 10 μM indomethacin to inhibit production of prostaglandins that can act as endothelium-derived vasoactive factors in this vessel. The vessels were tested for their contractile response to 40 mM K^+, concentration-response curves of phenylephrine (0.01 to 100 μM) and endothelin-1 (1-256 nM) followed by acetylcholine (Ach) (0.01 to 100 μM), PAPA/NO (0.01-10 μM) or Bay60-2770 (0.01-10 μM)-induced relaxations. The wall tension of the vessel segment was continuously recorded with LabChart Pro (AD Instruments, Oxford, UK).
# [4] = system: hypertensive patients; settings: cited from earlier work
# [5] = system: elevated blood pressure induced by NOS uncoupling; settings: preclinical, refs [85, 86]; cited from earlier work
# [6] = system: femoral arteries of aged WT and KI mice; assay: Endothelium-independent relaxations induced by apo-sGC activator, wire myograph; settings: BAY 60-2770 0.01-10 μM
# Experimental: as §2, §1
# [7] = system: femoral arteries of aged NOX5 KI mice; assay: Measurement of superoxide formation: DHE staining; settings: pre-treatment with 500 μM L-NAME for 30 min at 37° C.
# Experimental: Superoxide was measured in femoral arteries using the florescence dye dihydroethidium (DHE) (Thermo Scientific Technology, The Netherlands). Frozen femoral arteries cryo-sections were fixated in 4% paraformaldehyde (PFA) in PBS and then incubated with 2 μM DHE for 30 minutes at 37° C. After three washing steps with PBS, slices were incubated with DAPI (Sigma-Aldrich, The Netherlands) […] for 10 min. Sections were washed in PBS and then mounted using a Dako Fluorescence Mounting Medium ([…], Agilent Technologies). Immunofluorescent signals were viewed using a Leica DM13000 B fluorescence microscope. Some arteries were pre-treated with 500 μM L-NAME for 30 min at 37° C. before performing the DHE staining.
# [8] = system: thoracic aorta of aged KI and WT mice; assay: Ach-induced relaxation of isolated thoracic aorta, wire myograph; settings: thoracic aorta contracted with 258 nM endothelin-1, 100 μM L-NAME
# From the text: as §3
# as §1, with “DK).” for “DK). The organ chamber was filled with Krebs-Ringer bicarbonate-buffered salt solution (KRB) that was continuously aerated with 95% O2/5% CO2 and maintained at 37° C.”
# [9] = system: saphenous arteries of aged KI and WT mice; assay: Ach-induced relaxation of isolated saphenous arteries, wire myograph; settings: saphenous arteries contracted with endothelin-1; 100 μM L-NAME; both types of mice
# From the text: as §3
# as §1, with “DK).” for “DK). The organ chamber was filled with Krebs-Ringer bicarbonate-buffered salt solution (KRB) that was continuously aerated with 95% O2/5% CO2 and maintained at 37° C.”
structure (smiles),measurement,setting,value
COc1ccc2c(c1)c(CC(=O)O)c(C)n2C(=O)c1ccc(Cl)cc1 [indomethacin],"Blunting of agonist-induced contractile responses, KI vs WT mice",[1],similar
CCCN(CCCN)/[N+]([O-])=N/O [PAPA/NO],"Relaxing response, WT vs KI mice",[2],Neither the PAPA/NO (FIGS. 13 A-C) nor the BAY 60-2770 response (FIG. 11 D) differed
same,"Relaxing response, WT vs KI mice",[2]; listed as PAPA NO,did not differ
CC1(C)CC(O)CC(C)(C)N1[O] [tempol],Reversal of impaired Ach-induced relaxation by antioxidant,[3]; 100 μM tempol,"not reversed; also recorded: Neither 10 μM N-acetylcysteine nor 100 μM tempol, however, were effective"
Nc1nc2ncc(CNc3ccc(C(=O)N[C@@H](CCC(=O)O)C(=O)O)cc3)nc2c(=O)[nH]1 [folic acid],Effect on elevated blood pressure,"[4]; clinical, by improving endothelial function, refs [88, 89]",clinically effective to reduce elevated blood pressure
same,Risk of cardiovascular and cerebrovascular events,"[4]; hypertensive patients, alone or in combination with anti-hypertensives, refs [90-92]",reduces the risk of cardiovascular and cerebrovascular events
C[C@H](O)C(=O)C1=Nc2c(nc(N)[nH]c2=O)NC1 [sepiapterin],Effect on elevated blood pressure,[5],lower elevated blood pressure
same,Ach-induced relaxation after pre-treatment,"[3]; femoral arteries of aged KI mice pre-contracted with phenylephrine, sepiapterin 100 μM",improved relaxation in KI; also recorded: greatly improved and became indistinguishable from those in WT
O=C(O)CCCCN(CCc1cc(F)ccc1OCc1ccc(-c2ccc(C(F)(F)F)cc2)cc1)Cc1ccc(C(=O)O)cc1 [BAY 60-2770],"Relaxing response, WT vs KI mice",[6],Neither the PAPA/NO (FIGS. 13 A-C) nor the BAY 60-2770 response (FIG. 11 D) differed
same,"Relaxing response, WT vs KI mice",[6]; listed as Bay60-2770,did not differ
COC(=O)[C@@H](N)CCCNC(=N)N[N+](=O)[O-] [L-NAME],"Superoxide formation (DHE staining), increase in KI vs WT",[7],this increase was inhibited
same,Reversal of the relaxing effects of Ach,"[3]; femoral artery contracted with 258 nM endothelin-1, 100 μM L-NAME, KI and WT mice",reversed
same,Reversal of the relaxing effects of Ach,[8],reversed
same,Reversal of the relaxing effects of Ach,[9],did not modify the relaxing effects of Ach
CC(=O)N[C@@H](CS)C(=O)O [N-acetylcysteine],Reversal of impaired Ach-induced relaxation by antioxidant,[3]; 10 μM N-acetylcysteine,"not reversed; also recorded: Neither 10 μM N-acetylcysteine nor 100 μM tempol, however, were effective"
